Assay results: patent US20160367497A1, “METHODS AND COMPOSITIONS FOR TREATING NEUROPATHIES” (Washington University, priority 2007, published 2016)

How the values were obtained:
[1] = tested on: optic nerve (retinal ganglion cell axons); test: optic nerve transection after intravitreal injection, neurofilament Western blot; assay type: in vivo, rat; conditions: 5 μl of 100 mM intravitreal, 24 hours before transection; 4 days after transection
Procedure: FIG. 9 illustrates optic nerve transection after intravitreal injection of NAD biosynthetic substrates NAD, NMN, NmR, or Nam was injected into intravitreal compartment of left rat eye and allowed to incorporate retinal ganglion cells for 24 hours after which, left optic nerve was transected by eye enucleation and right and left optic nerves were collected at 4 days after transection and analyzed by Western blotting in which optic nerves transected from […] without any treatment prior to axotomy were used for negative control; showing in the figure, the quantitative analysis data of percentage of remaining neurofilament immunoreactivity from transected optic nerve relative to non-transected±S.D.
Administration of NAD biosynthetic substrates and optic Nerve transection. Nam, NMN, NmR, or NAD was dissolved in PBS at the concentration of 100 mM or 1 M. Each of 5 μl solution was injected into left intravitreal component under the anesthesia at a rate of […]. The left optic nerve was transected at 24 hours after intravitreal injection and optic nerve was recovered at indicated time. Optic nerve tissue was homogenized in 100 μl of a buffer containing 100 mM tris-HCl (pH 6.8), 1% SDS, and 1 mM DTT. Fifty μg of protein for each sample was analyzed by the Western blotting using anti-neurofilament antibody 2H3 (Developmental Studies Hybridoma Center) and peroxidase-conjugated secondary antibody (Jackson ImmunoResearch). The degeneration rate was calculated from the ratio of the neurofilament immunoreactivity of transected vs. contralateral nerves.
Transection of optic nerve is an in vivo model which can be used to investigate mechanisms leading to Wallerian degeneration and following retinal ganglion cell (RGC) death observed in human diseases such as glaucoma. In the C57BL/Wlds mouse strain, optic nerve degeneration during Wallerian degeneration after axotomy is dramatically slowed. In addition, intravitreal injection is used for screening of compounds that protect RGC axon from degeneration in vivo and thus we can asses the axon protective effect of each NAD biosynthetic substrates in vive by intraocular injection of compounds including NAD, NMN, NmR, and Nam. From in vitro Wallerian degeneration assay, 1 mM of NAD, NMN, and NmR in the culture media is enough to protect axon from degeneration. We initially injected 5 μl of 100 mM or 1 M NAD solution into left intravitreal compartment. After 24 hours incubation, left optic nerve was transected and control (right) and axotomized (left) optic nerve were collected at 3, 4, and 5 days after transection. Neurofilament immunoreactivity from the axotomized optic nerve was measured and normalized against the value obtained from the right side of the optic nerve.

[2] = tested on: acetyl Co-A carboxylase (ACC); test: ACC phosphorylation in Neuro2a cells (phospho-specific western blot); assay type: cell-based; conditions: resveratrol 10 μM or AICAR 1 mM; all time points to 72 hr
Procedure: FIG. 10A-D illustrates resveratrol activation of AMP kinase in Neuro2a cells. Neuro2a cells were switched to serum-starvation medium (medium containing 0.2% FCS) and treated with DMSO (vehicle control), resveratrol (10 μM) or 5-aminoimidazole-4-carboxamide-1-β-D-ribofuranoside (AICAR) (1 mM). […] Very low levels of phosphorylated AMPK and ACC were detected in DMSO treated control cells at all time points tested. (C) Densitometric analysis of changes in phosphorylated AMPK and (D) phosphorylated ACC under different conditions is shown.
Plasmids and viruses. […] Quantitative RT-PCR analysis was performed using Sybr-Green methodology on a model 7700 instrument (Applied Biosystems) as previously described (Araki et al., 2004, Science 305:1010-1013). […]
To explore the role of polyphenols, in particular, of resveratrol, we tested whether resveratrol altered the activity of AMPK in neuronal cells. […] To confirm that AMPK activation by resveratrol results in typical AMPK-mediated downstream responses, we monitored phosphorylation of ACC (acetyl Co-A carboxylase), a primary target of activated AMPK. […] To examine a potential mechanism of resveratrol-mediated AMPK activation, we measured cellular ATP levels as a decreased ATP:AMP ratio increases the phosphorylation of AMPK. […]

[3] = tested on: AMPK; test: AMPK phosphorylation in brain after intraperitoneal injection; assay type: in vivo, mice; conditions: single intraperitoneal injection 20 mg/kg; within 2 h
Procedure: FIG. 15A-E illustrates that resveratrol treatment causes AMPK phosphorylation in the brain. Two-month-old male mice were injected intraperitoneally with resveratrol (20 mg/kg body weight) or DMSO (vehicle) (n=3, for each treatment). Two hr after treatment, the animals were sacrificed and brain lysates were prepared. […] Total AMPK and ACC levels are shown as loading controls in B and D. (E) Densitometry was used to quantify the increased level of AMPK and ACC phosphorylation in the brain of resveratrol treated animals (* p<0.005).
To extend our in vitro results, we tested whether treating mice with resveratrol activates AMPK in the brain. We injected intraperitoneally 2-month-old male mice with either resveratrol (20 mg/kg body weight) or DMSO (vehicle) (n=3 for each group).

SMILES	neurofilament immunoreactivity of axotomized optic nerve, of non-axotomized optic nerve [1]	ACC phosphorylation [2]	increased AMPK phosphorylation in the brain [3]
NC(=O)c1cccnc1 [Nam, nicotinamide]	did not show any difference from the control animals		
Oc1ccc(C=Cc2cc(O)cc(O)c2)cc1 [resveratrol]		robust phosphorylation of ACC	2.5 fold
